Measurements: paper PMC11420776 (RSC Advances, 2024)

Tests used:
CCRF-CEM (leukemia) = experiment: NCI 60-cell one-dose antiproliferative screen; type: cell-based, human; details: one dose 10 μM
UACC-257 (melanoma) = experiment: NCI 60-cell one-dose antiproliferative screen; type: cell-based, human; details: one dose 10 μM
SN12C (renal cancer) = experiment: NCI 60-cell one-dose antiproliferative screen; type: cell-based, human; details: one dose 10 μM
[1] = tested on: 60 human tumor cell lines; experiment: NCI 60-cell one-dose antiproliferative screen, whole panel; type: cell-based
HCT-15 (colon cancer) = experiment: NCI 60-cell one-dose antiproliferative screen; type: cell-based, human; details: one dose 10 μM
TK-10 (renal cancer) = experiment: NCI 60-cell one-dose antiproliferative screen; type: cell-based, human; details: one dose 10 μM
T-47D (breast cancer) = experiment: NCI 60-cell one-dose antiproliferative screen; type: cell-based, human; details: one dose 10 μM
SNB-75 (CNS cancer) = experiment: NCI 60-cell one-dose antiproliferative screen; type: cell-based, human; details: one dose 10 μM
UO-31 (renal cancer) = experiment: NCI 60-cell one-dose antiproliferative screen; type: cell-based, human; details: one dose 10 μM
IGROV1 (ovarian cancer) = experiment: NCI 60-cell one-dose antiproliferative screen; type: cell-based, human; details: one dose 10 μM
RXF 393 (renal cancer) = experiment: NCI 60-cell one-dose antiproliferative screen; type: cell-based, human; details: one dose 10 μM
SF-268 (CNS cancer) = experiment: NCI 60-cell one-dose antiproliferative screen; type: cell-based, human; details: one dose 10 μM
SK-OV-3 (ovarian cancer) = experiment: NCI 60-cell one-dose antiproliferative screen; type: cell-based, human; details: one dose 10 μM
RPMI-8226 (leukemia) = experiment: NCI 60-cell one-dose antiproliferative screen; type: cell-based, human; details: one dose 10 μM
CAKI-1 (renal cancer) = experiment: NCI 60-cell one-dose antiproliferative screen; type: cell-based, human; details: one dose 10 μM
U251 (CNS cancer) = experiment: NCI 60-cell one-dose antiproliferative screen; type: cell-based, human; details: one dose 10 μM
[2] = tested on: NCI-H522 (NSC lung cancer); experiment: NCI 60-cell one-dose antiproliferative screen; type: cell-based, human; details: one dose 10 μM
DU-145 (prostate cancer) = experiment: NCI 60-cell one-dose antiproliferative screen; type: cell-based, human; details: one dose 10 μM
HCC-2998 (colon cancer) = experiment: NCI 60-cell one-dose antiproliferative screen; type: cell-based, human; details: one dose 10 μM
OVCAR-8 (ovarian cancer) = experiment: NCI 60-cell one-dose antiproliferative screen; type: cell-based, human; details: one dose 10 μM
SK-MEL-28 (melanoma) = experiment: NCI 60-cell one-dose antiproliferative screen; type: cell-based, human; details: one dose 10 μM
PC-3 (prostate cancer) = experiment: NCI 60-cell one-dose antiproliferative screen; type: cell-based, human; details: one dose 10 μM
HCT-116 (colon cancer) = experiment: NCI 60-cell one-dose antiproliferative screen; type: cell-based, human; details: one dose 10 μM
SK-MEL-2 (melanoma) = experiment: NCI 60-cell one-dose antiproliferative screen; type: cell-based, human; details: one dose 10 μM
LOX IMIV (melanoma) = experiment: NCI 60-cell one-dose antiproliferative screen; type: cell-based, human; details: one dose 10 μM
SW-620 (colon cancer) = experiment: NCI 60-cell one-dose antiproliferative screen; type: cell-based, human; details: one dose 10 μM
MCF7 (breast cancer) = experiment: NCI 60-cell one-dose antiproliferative screen; type: cell-based, human; details: one dose 10 μM
[3] = tested on: NCI-H226 (NSC lung cancer); experiment: NCI 60-cell one-dose antiproliferative screen; type: cell-based, human; details: one dose 10 μM
HOP-92 (NSC lung cancer) = experiment: NCI 60-cell one-dose antiproliferative screen; type: cell-based, human; details: one dose 10 μM
A498 (renal cancer) = experiment: NCI 60-cell one-dose antiproliferative screen; type: cell-based, human; details: one dose 10 μM
[4] = tested on: NCI-H322M (NSC lung cancer); experiment: NCI 60-cell one-dose antiproliferative screen; type: cell-based, human; details: one dose 10 μM
[5] = tested on: NCI/ADR-RES (ovarian cancer); experiment: NCI 60-cell one-dose antiproliferative screen; type: cell-based, human; details: one dose 10 μM
HT29 (colon cancer) = experiment: NCI 60-cell one-dose antiproliferative screen; type: cell-based, human; details: one dose 10 μM
HS 578T (breast cancer) = experiment: NCI 60-cell one-dose antiproliferative screen; type: cell-based, human; details: one dose 10 μM
SF-539 (CNS cancer) = experiment: NCI 60-cell one-dose antiproliferative screen; type: cell-based, human; details: one dose 10 μM
SNB-19 (CNS cancer) = experiment: NCI 60-cell one-dose antiproliferative screen; type: cell-based, human; details: one dose 10 μM
SF-295 (CNS cancer) = experiment: NCI 60-cell one-dose antiproliferative screen; type: cell-based, human; details: one dose 10 μM
ACHN (renal cancer) = experiment: NCI 60-cell one-dose antiproliferative screen; type: cell-based, human; details: one dose 10 μM
[6] = tested on: MDA-MB-231/ATCC (breast cancer); experiment: NCI 60-cell one-dose antiproliferative screen; type: cell-based, human; details: one dose 10 μM
MALME-3M (melanoma) = experiment: NCI 60-cell one-dose antiproliferative screen; type: cell-based, human; details: one dose 10 μM
[7] = tested on: A549/ATCC (NSC lung cancer); experiment: NCI 60-cell one-dose antiproliferative screen; type: cell-based, human; details: one dose 10 μM
EKVX (NSC lung cancer) = experiment: NCI 60-cell one-dose antiproliferative screen; type: cell-based, human; details: one dose 10 μM
KM12 (colon cancer) = experiment: NCI 60-cell one-dose antiproliferative screen; type: cell-based, human; details: one dose 10 μM
[8] = tested on: NCI-H460 (NSC lung cancer); experiment: NCI 60-cell one-dose antiproliferative screen; type: cell-based, human; details: one dose 10 μM
COLO-205 (colon cancer) = experiment: NCI 60-cell one-dose antiproliferative screen; type: cell-based, human; details: one dose 10 μM
UACC-62 (melanoma) = experiment: NCI 60-cell one-dose antiproliferative screen; type: cell-based, human; details: one dose 10 μM
M14 (melanoma) = experiment: NCI 60-cell one-dose antiproliferative screen; type: cell-based, human; details: one dose 10 μM
OVCAR-3 (ovarian cancer) = experiment: NCI 60-cell one-dose antiproliferative screen; type: cell-based, human; details: one dose 10 μM
HOP-62 (NSC lung cancer) = experiment: NCI 60-cell one-dose antiproliferative screen; type: cell-based, human; details: one dose 10 μM
786-0 (renal cancer) = experiment: NCI 60-cell one-dose antiproliferative screen; type: cell-based, human; details: one dose 10 μM
OVCAR-5 (ovarian cancer) = experiment: NCI 60-cell one-dose antiproliferative screen; type: cell-based, human; details: one dose 10 μM
MDA-MB-435 (melanoma) = experiment: NCI 60-cell one-dose antiproliferative screen; type: cell-based, human; details: one dose 10 μM
[9] = tested on: MDA-MB-468 (breast cancer); experiment: NCI 60-cell one-dose antiproliferative screen; type: cell-based, human; details: one dose 10 μM
OVCAR-4 (ovarian cancer) = experiment: NCI 60-cell one-dose antiproliferative screen; type: cell-based, human; details: one dose 10 μM
[10] = tested on: NCI-H23 (NSC lung cancer); experiment: NCI 60-cell one-dose antiproliferative screen; type: cell-based, human; details: one dose 10 μM

CC(=O)NNc1ccc2nnc(-c3ccccc3)n2n1 [Compound 6a, N′-(3-Phenyl-[1,2,4]triazolo[4,3-b]pyridazin-6-yl)acetohydrazide]
GI% (CCRF-CEM (leukemia)): — (— GI% is below 15%)
GI% (UACC-257 (melanoma)): — (— GI% is below 15%)
GI% (SN12C (renal cancer)): — (— GI% is below 15%)
inhibition at 10 µM ([1]; Homo sapiens, 60 cell, read-out: Mean inhibition (mean GI%)): < 15%
cytotoxic activity in words ([1]; NCI-60 panel, one dose 10 μM): demolished cytotoxicity
GI% (HCT-15 (colon cancer)): — (— GI% is below 15%)
GI% (TK-10 (renal cancer)): — (— GI% is below 15%)
GI% (T-47D (breast cancer)): — (— GI% is below 15%)
GI% (SNB-75 (CNS cancer)): — (— GI% is below 15%)
GI% (UO-31 (renal cancer)): — (— GI% is below 15%)
GI% (IGROV1 (ovarian cancer)): — (— GI% is below 15%)
GI% (RXF 393 (renal cancer)): — (— GI% is below 15%)
GI% (SF-268 (CNS cancer)): — (— GI% is below 15%)
GI% (SK-OV-3 (ovarian cancer)): — (— GI% is below 15%)
GI% (RPMI-8226 (leukemia)): — (— GI% is below 15%)
GI% (CAKI-1 (renal cancer)): — (— GI% is below 15%)
GI% (U251 (CNS cancer)): — (— GI% is below 15%)
GI% [2]: — (— GI% is below 15%)
GI% (DU-145 (prostate cancer)): — (— GI% is below 15%)
GI% (HCC-2998 (colon cancer)): — (— GI% is below 15%)
GI% (OVCAR-8 (ovarian cancer)): — (— GI% is below 15%)
GI% (SK-MEL-28 (melanoma)): — (— GI% is below 15%)
GI% (PC-3 (prostate cancer)): — (— GI% is below 15%)
GI% (HCT-116 (colon cancer)): — (— GI% is below 15%)
GI% (SK-MEL-2 (melanoma)): — (— GI% is below 15%)
GI% (LOX IMIV (melanoma)): — (— GI% is below 15%)
GI% (SW-620 (colon cancer)): — (— GI% is below 15%)
GI% (MCF7 (breast cancer)): — (— GI% is below 15%)
GI% [3]: — (— GI% is below 15%)
GI% (HOP-92 (NSC lung cancer)): — (— GI% is below 15%)
GI% (A498 (renal cancer)): — (— GI% is below 15%)
GI% [4]: — (— GI% is below 15%)
GI% [5]: — (— GI% is below 15%)
GI% (HT29 (colon cancer)): — (— GI% is below 15%)
GI% (HS 578T (breast cancer)): — (— GI% is below 15%)
GI% (SF-539 (CNS cancer)): — (— GI% is below 15%)
GI% (SNB-19 (CNS cancer)): — (— GI% is below 15%)
GI% (SF-295 (CNS cancer)): — (— GI% is below 15%)
GI% (ACHN (renal cancer)): — (— GI% is below 15%)
GI% [6]: — (— GI% is below 15%)
GI% (MALME-3M (melanoma)): — (— GI% is below 15%)
GI% [7]: — (— GI% is below 15%)
GI% (EKVX (NSC lung cancer)): — (— GI% is below 15%)
GI% (KM12 (colon cancer)): — (— GI% is below 15%)
GI% [8]: — (— GI% is below 15%)
GI% (COLO-205 (colon cancer)): — (— GI% is below 15%)
GI% (UACC-62 (melanoma)): — (— GI% is below 15%)
GI% (M14 (melanoma)): — (— GI% is below 15%)
GI% (OVCAR-3 (ovarian cancer)): — (— GI% is below 15%)
GI% (HOP-62 (NSC lung cancer)): — (— GI% is below 15%)
GI% (786-0 (renal cancer)): — (— GI% is below 15%)
GI% (OVCAR-5 (ovarian cancer)): — (— GI% is below 15%)
GI% (MDA-MB-435 (melanoma)): — (— GI% is below 15%)
GI% [9]: — (— GI% is below 15%)
GI% (OVCAR-4 (ovarian cancer)): — (— GI% is below 15%)
GI% [10]: — (— GI% is below 15%)
